Assay results from PubChem BioAssay AID2060342 (Molecular Pharmacology Branch, DTP, NCI, 2025).

Tested on: 171881-019-R-J1-PDC multicell spheroid viability
Assay: Anticancer human tumor 171881-019-R-J1-PDC patient-derived invasive breast carcinoma cell line growth inhibition [IpAb]
Conditions: for IC50: curve of first compound; for viability, T/C: stronger effect = lower value
Summary of the method: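 Spheroids of 60% malignant cells, 25% HUVEC and 15% MSC were exposed to targeted agents combined with ipatasertib or abemaciclib. Doses started at or near clinical Cmax (10 microM when unknown) and fell in half-log steps.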

[1] = second compound 0.1 µM, first compound 0.0316 µM
[2] = second compound 0.1 µM, first compound 0.1 µM
[3] = second compound 0.1 µM, first compound 0.316 µM
[4] = second compound 0.1 µM, first compound 1 µM
[5] = second compound 0.1 µM, first compound 3.16 µM
[6] = second compound 0.1 µM, first compound 10 µM
[7] = second compound 0.316 µM, first compound 0.0316 µM
[8] = second compound 0.316 µM, first compound 0.1 µM
[9] = second compound 0.316 µM, first compound 0.316 µM
[10] = second compound 0.316 µM, first compound 1 µM
[11] = second compound 0.316 µM, first compound 3.16 µM
[12] = second compound 0.316 µM, first compound 10 µM
[13] = second compound 1 µM, first compound 0.0316 µM
[14] = second compound 1 µM, first compound 0.1 µM
[15] = second compound 1 µM, first compound 0.316 µM
[16] = second compound 1 µM, first compound 1 µM
[17] = second compound 1 µM, first compound 3.16 µM
[18] = second compound 1 µM, first compound 10 µM
[19] = second compound 3.16 µM, first compound 0.0316 µM
[20] = second compound 3.16 µM, first compound 0.1 µM
[21] = second compound 3.16 µM, first compound 0.316 µM
[22] = second compound 3.16 µM, first compound 1 µM
[23] = second compound 3.16 µM, first compound 3.16 µM
[24] = second compound 3.16 µM, first compound 10 µM
[25] = second compound 10 µM, first compound 0.0316 µM
[26] = second compound 10 µM, first compound 0.1 µM
[27] = second compound 10 µM, first compound 0.316 µM
[28] = second compound 10 µM, first compound 1 µM
[29] = second compound 10 µM, first compound 3.16 µM
[30] = second compound 10 µM, first compound 10 µM
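Further: spheroids exposed to the agents for seven days before readout.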

SMILES | IC50 (second compound 0.1 µM) | IC50 (second compound 0.316 µM) | IC50 (second compound 1 µM) | IC50 (second compound 3.16 µM) | IC50 (second compound 10 µM) | viability, T/C [1] | viability, T/C [2] | viability, T/C [3] | viability, T/C [4] | viability, T/C [5] | viability, T/C [6] | viability, T/C [7] | viability, T/C [8] | viability, T/C [9] | viability, T/C [10] | viability, T/C [11] | viability, T/C [12] | viability, T/C [13] | viability, T/C [14] | viability, T/C [15] | other results
Cc1nc(NC(=O)N2CCCC2C(N)=O)sc1-c1ccnc(C(C)(C)C(F)(F)F)c1 (stereo not given) + CC(C)NCC(C(=O)N1CCN(c2ncnc3c2C(C)CC3O)CC1)c1ccc(Cl)cc1 | 651 nM | 294 nM | < 31.6 nM | < 31.6 nM | < 31.6 nM | 125% | 108% | 68.4% | 38.1% | 15.5% | 1.41% | 71.5% | 58.9% | 52.8% | 18.8% | 10.7% | 1.29% | 24.8% | 24.1% | 21.3% | viability, T/C [16]: 13.5%; viability, T/C [17]: 4.39%; viability, T/C [18]: 0.88%; viability, T/C [19]: 10.7%; viability, T/C [20]: 7.22%; viability, T/C [21]: 7.33%; viability, T/C [22]: 5.54%; viability, T/C [23]: 3.24%; viability, T/C [24]: 0.74%; viability, T/C [25]: 5.48%; viability, T/C [26]: 4.17%; viability, T/C [27]: 4.3%; viability, T/C [28]: 2.72%; viability, T/C [29]: 1.77%; viability, T/C [30]: 0.6%
Cn1nccc1Nc1nccc(-c2ccn(C(CO)c3ccc(Cl)c(F)c3)c(=O)c2)n1 (stereo not given) + CC(C)NCC(C(=O)N1CCN(c2ncnc3c2C(C)CC3O)CC1)c1ccc(Cl)cc1 | 169 nM | 64.8 nM | < 31.6 nM | < 31.6 nM | < 31.6 nM | 111% | 65.8% | 32.5% | 10.4% | 7.79% | 7.95% | 69.1% | 38.5% | 9.02% | 4.73% | 3.47% | 3.81% | 17.9% | 10.3% | 3.68% | viability, T/C [16]: 2.46%; viability, T/C [17]: 2.13%; viability, T/C [18]: 1.27%; viability, T/C [19]: 6.73%; viability, T/C [20]: 3.37%; viability, T/C [21]: 2.44%; viability, T/C [22]: 1.77%; viability, T/C [23]: 0.69%; viability, T/C [24]: 0.94%; viability, T/C [25]: 3.16%; viability, T/C [26]: 2.33%; viability, T/C [27]: 1.55%; viability, T/C [28]: 1.06%; viability, T/C [29]: 0.84%; viability, T/C [30]: 0.32%
